According to US12084481B2 (priority 2016, dated 2024):

Test system: H^+ currents
Conditions: cited from earlier work
In the case of `Nc1ccncc1` [4-aminopyridine], the “effect on H^+ currents” value is listed as “block H^+ currents”. For `COc1ccc(CCN(C)CCCC(C#N)(c2cc(OC)c(OC)c(OC)c2)C(C)C)cc1OC` (stereo not shown) [D600], the “effect on H^+ currents” value is listed as “block H^+ currents”. For `O=C(O[C@@H]1Cc2c(O)cc(O)cc2O[C@@H]1c1cc(O)c(O)c(O)c1)c1cc(O)c(O)c(O)c1` [EGCG], the “effect on H^+ currents” value is listed as “block H^+ currents”. For `N=C(N)NC(=O)c1nc(Cl)c(N)nc1N` [amiloride], the “effect on H^+ currents” value is listed as “block H^+ currents”. For `CN(C)CCC=C1c2ccccc2CCc2ccccc21` [amitryptiline], the “effect on H^+ currents” value is given as “block H^+ currents”. For `CNCCCN1c2ccccc2CCc2ccccc21` [desipramine], the “effect on H^+ currents” value is listed as “block H^+ currents”. For `COc1ccc2c(c1)[C@]13CCCC[C@@H]1[C@H](C2)N(C)CC3` [dextromethorphan], the “effect on H^+ currents” value is listed as “block H^+ currents”. In the case of `CNCCC(Oc1ccc(C(F)(F)F)cc1)c1ccccc1` (stereo not shown) [fluoxetine], the “effect on H^+ currents” value is given as “block H^+ currents”. For `CN(C)CCCN1c2ccccc2CCc2ccccc21` [imipramine], the “effect on H^+ currents” value is listed as “block H^+ currents”. In the case of `COc1ccc(CCN(C)CCCC(C#N)(c2ccc(OC)c(OC)c2)C(C)C)cc1OC` (stereo not shown) [verapamil], the “effect on H^+ currents” value is given as “block H^+ currents”.

Test system: human blood cells
Type: cell-based
Conditions: 100 μM
For `[Zn]` [zinc], the “production of ROS” value was “blocks ROS production to background (control) levels”.

Target: hHv1 (Homo sapiens, UniProt Q96D96)
Sequence (Q96D96 whole entry): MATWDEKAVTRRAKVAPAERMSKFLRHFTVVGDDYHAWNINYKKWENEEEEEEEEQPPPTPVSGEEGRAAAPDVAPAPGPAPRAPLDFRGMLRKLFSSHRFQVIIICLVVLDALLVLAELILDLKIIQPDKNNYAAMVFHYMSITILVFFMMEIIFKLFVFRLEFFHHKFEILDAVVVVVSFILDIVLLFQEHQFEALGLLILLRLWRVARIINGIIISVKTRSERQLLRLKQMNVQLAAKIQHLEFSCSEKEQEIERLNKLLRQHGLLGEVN
Type: cell-based
Conditions: not given
For “GCKGFGDSCADSDDCCETFHCKWVFFTSKFMCRRVWGKD [A6]”, the Activator/Inhibitor was “ACTIVATOR”. In the case of “GCLGDKCADSDDCCETFHCKWVFFTSKFMCRRVWGKD [B1]”, the Activator/Inhibitor is reported as “ACTIVATOR”.

Target: Hv1 channels (Homo sapiens, UniProt Q96D96)
Sequence (Q96D96 whole entry): as the sequence (Q96D96 whole entry) above
Conditions: cited from earlier work
For `CCCCC/C=C\C/C=C\C/C=C\C/C=C\CCCC(=O)O` [arachidonic acid], the “effect on Hv1 proton currents” value is listed as “enhance Hv1 proton currents”. In the case of `CCCCCCCC/C=C\CCCCCCCC(=O)O` [oleic acid], the “effect on Hv1 proton currents” value is given as “enhance Hv1 proton currents”. In the case of “ECRYLFGGCKTTSDCCKHLGCKFRDKYCAWDFTFS [hanatoxin]”, the “concentrations inhibiting Hv1” value is given as “low micromolar”.
